Where “and” joins values, the source holds several entries; their conditions need not be identical. Identical values can stand only once.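 Protocol summary: plate cells (96-well), add compound at 5 concentrations, incubate 48 h, interpolate endpoints linearly. The concentration for 50% growth inhibition is given as GI50. Definition used: TGI = concentration required for complete inhibition of growth.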 Bounds are passed on as bounds.

Some test systems named below: A498 renal; CAKI-1 renal; CCRF-CEM leukemia; HCC-2998 colon; HL-60(TB) leukemia; HT29 colon; K-562 leukemia; NCI-H226 lung; NCI-H460 lung; SK-MEL-28 melanoma.
Assay in all cases: NCI anticancer screen, dose series, 48 h

Take `Nc1nc2c(ncn2C2OC(CO)C(O)C2O)c(=O)[nH]1` (stereo not given): the TGI in the experiment with A498 renal was 8.79 µM; in the experiment with CAKI-1 renal it was > 100 µM and 214 µM; with CCRF-CEM leukemia it was > 100 µM and 217 µM; with HCC-2998 colon it was > 100 µM and 245 µM; in the experiment on HL-60(TB) leukemia, > 100 µM and 99.7 µM; with HT29 colon, > 100 µM and 196 µM. The TGI was > 100 µM and 233 µM in the experiment on K-562 leukemia; 224 µM in the experiment on NCI-H226 lung; > 100 µM and 154 µM with NCI-H460 lung; > 100 µM and 265 µM in the experiment on SK-MEL-28 melanoma. Further, the GI50 in the experiment on CAKI-1 renal was 55.5 µM; with CCRF-CEM leukemia, 13.5 µM; in the experiment on HCC-2998 colon it was 78.7 µM; in the experiment with HL-60(TB) leukemia, > 100 µM; with HT29 colon, > 100 µM; in the experiment on K-562 leukemia it was > 100 µM. The GI50 with NCI-H460 lung was > 100 µM and 15.5 µM.

As for `c1ccc2[nH]c(-c3cscn3)nc2c1`, the TGI was > 100 µM in the experiment with A498 renal; > 100 µM and 37.2 µM in the experiment on CAKI-1 renal; > 100 µM with CCRF-CEM leukemia; > 100 µM in the experiment on HCC-2998 colon; > 100 µM with HL-60(TB) leukemia; > 100 µM with HT29 colon. The TGI in the experiment on K-562 leukemia, in the experiment on NCI-H226 lung, with NCI-H460 lung and in the experiment with SK-MEL-28 melanoma was > 100 µM throughout.

Consider `O=C(/C=C/c1ccccn1)c1ccccc1`, for which the GI50 was 14.9 µM in the experiment with A498 renal; 3.28 µM in the experiment with CAKI-1 renal; 2.43 µM in the experiment on CCRF-CEM leukemia; 15.4 µM with HCC-2998 colon; 1.88 µM in the experiment with HL-60(TB) leukemia; 1.99 µM in the experiment on HT29 colon. Besides, the GI50 in the experiment on K-562 leukemia was 2.53 µM; in the experiment on NCI-H226 lung, 15.2 µM; in the experiment with NCI-H460 lung, 4.44 µM; with SK-MEL-28 melanoma, 6.09 µM. Further, the TGI is 28.3 µM in the experiment with A498 renal; 12.3 µM in the experiment on CAKI-1 renal; 6.61 µM in the experiment on CCRF-CEM leukemia; 29.9 µM with HCC-2998 colon; 6.75 µM with HL-60(TB) leukemia; 4.3 µM in the experiment with HT29 colon. Also, the TGI in the experiment on K-562 leukemia is > 100 µM; in the experiment on NCI-H226 lung it was 29.7 µM; in the experiment on NCI-H460 lung it was 18.1 µM; in the experiment with SK-MEL-28 melanoma, 19.2 µM.

For the molecule `Cc1nc(Nc2ccc(Cl)c(Cl)c2)sc1C(/C=C/c1ccc2c(c1)OCO2)=N/Nc1ccc([N+](=O)[O-])cc1[N+](=O)[O-]`, the TGI with A498 renal is > 100 µM; in the experiment on CAKI-1 renal, > 46.4 µM; in the experiment on CCRF-CEM leukemia, > 100 µM; with HCC-2998 colon, > 100 µM; in the experiment on HL-60(TB) leukemia it was > 100 µM; with HT29 colon, > 100 µM. Besides, the TGI in the experiment on K-562 leukemia, with NCI-H226 lung, in the experiment on NCI-H460 lung and in the experiment on SK-MEL-28 melanoma was > 100 µM in each case.

`O=C(O)c1cc2ccc(Cl)cc2c(O)c1C1=CCCCC1`: the TGI in the experiment with A498 renal is 79.1 µM; with CAKI-1 renal, 96.4 µM; with CCRF-CEM leukemia, > 100 µM; in the experiment on HCC-2998 colon, > 100 µM; in the experiment on HL-60(TB) leukemia, > 100 µM; with HT29 colon, > 100 µM. Moreover, the TGI in the experiment with K-562 leukemia is > 100 µM; in the experiment on NCI-H226 lung, 68.3 µM; with NCI-H460 lung, > 100 µM; in the experiment with SK-MEL-28 melanoma it was > 100 µM.

On to `COc1cc(/C=C/C(=O)/C=C/c2ccc(-n3ccnc3)cc2)ccc1O`, for which the GI50 is 7.22 µM in the experiment with A498 renal; 3.24 µM in the experiment on CAKI-1 renal; 2.68 µM in the experiment with CCRF-CEM leukemia; 1.79 µM with HCC-2998 colon; 3.29 µM in the experiment with HL-60(TB) leukemia; 1.97 µM in the experiment on HT29 colon. Also, the GI50 in the experiment on K-562 leukemia was 3.18 µM; in the experiment on NCI-H226 lung it was 2.31 µM; with NCI-H460 lung, 14.1 µM; in the experiment with SK-MEL-28 melanoma it was 2.42 µM. Further, the TGI came to 19.9 µM in the experiment with A498 renal; 11.5 µM in the experiment on CAKI-1 renal; 12.7 µM in the experiment with CCRF-CEM leukemia; 3.42 µM with HCC-2998 colon; 22.4 µM with HL-60(TB) leukemia; 3.88 µM in the experiment on HT29 colon. Besides, the TGI was > 100 µM in the experiment on K-562 leukemia, 5.8 µM in the experiment on NCI-H226 lung, 34.9 µM in the experiment with NCI-H460 lung and 6.49 µM in the experiment on SK-MEL-28 melanoma.

For the molecule `O=[N+]([O-])/C=C/c1cn(CCCCCCCCn2cc(/C=C/[N+](=O)[O-])c3ccccc32)c2ccccc12`, the TGI in the experiment on A498 renal, with CAKI-1 renal, in the experiment on CCRF-CEM leukemia, in the experiment on HCC-2998 colon, with HL-60(TB) leukemia and in the experiment with HT29 colon was > 10 µM in each case. For the same molecule, the TGI in the experiment on K-562 leukemia, in the experiment with NCI-H226 lung, with NCI-H460 lung and with SK-MEL-28 melanoma was > 10 µM in each case.

On to `NCC[PH+](c1ccccc1)c1ccccc1.NCC[PH+](c1ccccc1)c1ccccc1.[Cl-].[Pt+4]`, for which the GI50 was > 100 µM with A498 renal; > 100 µM in the experiment on CAKI-1 renal; 12.2 µM in the experiment on CCRF-CEM leukemia; > 100 µM with HCC-2998 colon; 1.8 µM with HL-60(TB) leukemia; 85 µM with HT29 colon. For the same molecule, the GI50 was 26.5 µM in the experiment on K-562 leukemia, > 100 µM with NCI-H226 lung, 84.5 µM in the experiment with NCI-H460 lung and > 100 µM in the experiment with SK-MEL-28 melanoma. The TGI was > 100 µM in the experiment on A498 renal; > 100 µM in the experiment with CAKI-1 renal; > 73.2 µM with CCRF-CEM leukemia; > 100 µM in the experiment with HCC-2998 colon; > 57.8 µM in the experiment on HL-60(TB) leukemia; > 100 µM in the experiment with HT29 colon. The TGI in the experiment with K-562 leukemia was > 84.7 µM; in the experiment with NCI-H226 lung, > 100 µM; with NCI-H460 lung, > 100 µM; in the experiment with SK-MEL-28 melanoma, > 100 µM.

In the case of `O=C(N[C@H]1CC2(C=C(I)C(=O)C(I)=C2)OC1=O)OCc1ccccc1`, the TGI was > 100 µM with A498 renal; 36.3 µM with CAKI-1 renal; 8.64 µM in the experiment with CCRF-CEM leukemia; 34.6 µM with HCC-2998 colon; 21.4 µM with HL-60(TB) leukemia; 35.8 µM in the experiment on HT29 colon. Further, the TGI came out at 33.5 µM in the experiment with K-562 leukemia, 90.3 µM in the experiment on NCI-H226 lung, 43 µM in the experiment with NCI-H460 lung and 33.5 µM in the experiment with SK-MEL-28 melanoma.

For `Cc1cc(=O)[nH]c2c1C(=O)c1c(C)cc(=O)n(C)c1C2=O`, the TGI in the experiment with A498 renal was 0.36 µM; with CAKI-1 renal, 0.258 µM; with CCRF-CEM leukemia, > 10 µM; in the experiment with HCC-2998 colon, 0.058 µM; with HL-60(TB) leukemia it was 0.374 µM; in the experiment with HT29 colon it was 0.208 µM. Further, the TGI was > 10 µM in the experiment on K-562 leukemia, 0.0777 µM with NCI-H226 lung, 0.364 µM with NCI-H460 lung and 0.0351 µM with SK-MEL-28 melanoma.

As for `CCCC/C=C1/CCC(CN(C)C)C1=O` (stereo not given), the TGI with A498 renal amounted to 15.9 µM; with CAKI-1 renal it was 1.78 µM; with CCRF-CEM leukemia, 1.76 µM; in the experiment on HCC-2998 colon it was 3.07 µM; in the experiment with HL-60(TB) leukemia, 4.63 µM; with HT29 colon, 4.7 µM. Further, the TGI was determined as 3.79 µM in the experiment on K-562 leukemia, 22.8 µM in the experiment with NCI-H226 lung, 26.8 µM in the experiment with NCI-H460 lung and 3.93 µM in the experiment with SK-MEL-28 melanoma. Also, the GI50 was 0.424 µM with CCRF-CEM leukemia, 2.3 µM in the experiment on HT29 colon and 9.87 µM with NCI-H460 lung.

Turning to `Cn1cc(C2=C(c3cccc([N+](=O)[O-])c3)C(=O)NC2=O)c2ccccc21`, the GI50 was 0.539 µM in the experiment with A498 renal; 5.5 µM with CAKI-1 renal; 7.19 µM in the experiment on CCRF-CEM leukemia; 14.5 µM with HCC-2998 colon; 7.14 µM in the experiment with HL-60(TB) leukemia; 7.29 µM with HT29 colon. Moreover, the GI50 with K-562 leukemia was 4.85 µM; with NCI-H226 lung it was 4.62 µM; with NCI-H460 lung it was 8.52 µM; in the experiment with SK-MEL-28 melanoma, 10.5 µM. Further, the TGI in the experiment on A498 renal is 1.81 µM; in the experiment on CAKI-1 renal it was > 25 µM; in the experiment with CCRF-CEM leukemia, > 25 µM; with HCC-2998 colon, > 25 µM; in the experiment on HL-60(TB) leukemia it was 19.1 µM; in the experiment on HT29 colon, > 25 µM. Besides, the TGI in the experiment with K-562 leukemia was > 25 µM; with NCI-H226 lung, > 19.2 µM; with NCI-H460 lung, > 25 µM; in the experiment on SK-MEL-28 melanoma it was > 25 µM.

For the molecule `COc1ccc(N=C2C(=O)Nc3ccc(Br)cc32)cc1`, the TGI in the experiment with A498 renal was > 100 µM; with CAKI-1 renal, 60.6 µM; with CCRF-CEM leukemia, 37.2 µM; with HCC-2998 colon, 37.4 µM; in the experiment on HL-60(TB) leukemia, 42.7 µM; with HT29 colon, 58.1 µM. Besides, the TGI came to 33.2 µM with K-562 leukemia, 35.5 µM in the experiment with NCI-H226 lung, 78.4 µM with NCI-H460 lung and 84.6 µM with SK-MEL-28 melanoma.

With `COc1cc(-c2ccc[nH]2)[nH]c1/C=C1\N=C(C)C(C(=O)NC(C)C)=C1C`, the GI50 in the experiment with A498 renal was 8.91 µM; in the experiment on CAKI-1 renal, 2.8 µM; with CCRF-CEM leukemia, 1.77 µM; with HCC-2998 colon, 2.87 µM; in the experiment on HL-60(TB) leukemia, 2.4 µM; with HT29 colon, 0.508 µM. The GI50 with K-562 leukemia was 3.53 µM; with NCI-H226 lung, 3.77 µM; with NCI-H460 lung, 2.44 µM; in the experiment with SK-MEL-28 melanoma, 7.17 µM. The TGI with A498 renal came to 21.6 µM; in the experiment on CAKI-1 renal it was 10.9 µM; with CCRF-CEM leukemia it was 32 µM; with HCC-2998 colon it was 13.8 µM; with HL-60(TB) leukemia, 10.3 µM; with HT29 colon, 10.8 µM. The TGI with K-562 leukemia was found to be 15.2 µM; in the experiment on NCI-H226 lung it was 20.4 µM; with NCI-H460 lung, 12.7 µM; in the experiment on SK-MEL-28 melanoma, 19.8 µM.

These data come from PubChem BioAssay (NCI).
